In the NIST ThermoML archive (doi:10.1007/s10765-010-0902-x):

Tests used:
[1] = 298.15 K; 101 kPa; Liquid
[2] = refractive index (Na D-line) (dimensionless); conditions: 298.15 K; 101.33 kPa; Liquid; Standard Abbe refractometry
[3] = xn = mol fraction of the nth substance listed; conditions: 298.15 K, 101 kPa, Liquid; for viscosity: Capillary tube (Ostwald / Ubbelohde) method
[4] = refractive index (Na D-line) (dimensionless); xn = mol fraction of the nth substance listed; conditions: 298.15 K, 101 kPa, Liquid, Standard Abbe refractometry

CCCCCCCCCl [1-chlorooctane]
Conditions | mass density [kg/m3] | refractive index
[1] | 868.71 | –
[2] | – | 1.4282

CCCCCCCCl [1-chloroheptane] + CCCCOC(C)=O
Conditions | mass density, [3] [kg/m3] | refractive index, [4] | viscosity, [3] [mPa·s]
x2 = 0 | 872.79 | 1.4236 | –
x2 = 0.0505 | 872.6 | 1.4219 | 0.828
x2 = 0.1006 | 872.52 | 1.4203 | 0.815
x2 = 0.1503 | 872.45 | 1.4189 | 0.803
x2 = 0.2014 | 872.41 | 1.4175 | 0.792
x2 = 0.3003 | 872.39 | 1.4147 | 0.77
x2 = 0.3505 | 872.42 | 1.4133 | 0.759
x2 = 0.4007 | 872.48 | 1.4118 | 0.749
x2 = 0.4503 | 872.56 | 1.4103 | 0.739
x2 = 0.5006 | 872.71 | 1.4087 | 0.729
x2 = 0.6001 | 873.07 | 1.4054 | 0.71
x2 = 0.65 | 873.32 | 1.4037 | 0.7
x2 = 0.6996 | 873.64 | 1.402 | 0.691
x2 = 0.7499 | 873.97 | 1.4003 | 0.682
x2 = 0.8001 | 874.32 | 1.3986 | 0.674
x2 = 0.9 | 875.2 | 1.3952 | 0.659

CCCCCCCCl [1-chloroheptane]
Conditions | mass density [kg/m3] | refractive index
[1] | 872.79 | –
[2] | – | 1.4236

CCCCCCCl [1-chlorohexane]
Conditions | mass density [kg/m3] | refractive index
[1] | 873.39 | –
[2] | – | 1.4171

CCCCOC(C)=O [butyl ethanoate]
Conditions | mass density [kg/m3] | refractive index
[1] | 876.28 | –
[2] | – | 1.3918

CCCCCCCCCl [1-chlorooctane] + CCCCOC(C)=O
Conditions | mass density, [3] [kg/m3] | refractive index, [4] | viscosity, [3] [mPa·s]
x2 = 0 | 868.71 | 1.4282 | –
x2 = 0.0507 | 868.69 | 1.4271 | 1.032
x2 = 0.1002 | 868.7 | 1.4264 | 1.007
x2 = 0.1498 | 868.74 | 1.4256 | 0.981
x2 = 0.1999 | 868.73 | 1.4247 | 0.959
x2 = 0.3001 | 868.77 | 1.4222 | 0.911
x2 = 0.3496 | 868.82 | 1.4208 | 0.889
x2 = 0.4001 | 868.99 | 1.4192 | 0.867
x2 = 0.4503 | 869.17 | 1.4174 | 0.846
x2 = 0.5 | 869.45 | 1.4156 | 0.825
x2 = 0.6019 | 870.13 | 1.4114 | 0.784
x2 = 0.6999 | 871.1 | 1.4069 | 0.745
x2 = 0.7998 | 872.48 | 1.4018 | 0.708
x2 = 0.8999 | 874.25 | 1.3968 | 0.674

CCCCCl [1-chlorobutane]
Conditions | mass density [kg/m3] | refractive index
[1] | 880.87 | –
[2] | – | 1.3996

CCCCOC(C)=O [butyl ethanoate] + CCCCCCCl
x1 = 1
Conditions | mass density [kg/m3] | refractive index
[3] | 876.28 | –
[4] | – | 1.3918

CCCCCCl [1-chloropentane] + CCCCOC(C)=O
Conditions | mass density, [3] [kg/m3] | refractive index, [4] | viscosity, [3] [mPa·s]
x2 = 0 | 876.93 | 1.4097 | –
x2 = 0.05 | 876.71 | 1.4081 | 0.55
x2 = 0.1 | 876.44 | 1.4065 | 0.552
x2 = 0.15 | 876.14 | 1.405 | 0.554
x2 = 0.2 | 875.89 | 1.4036 | 0.557
x2 = 0.3 | 875.46 | 1.401 | 0.563
x2 = 0.35 | 875.29 | 1.3998 | 0.567
x2 = 0.4 | 875.2 | 1.3987 | 0.571
x2 = 0.5 | 875.11 | 1.3967 | 0.58
x2 = 0.6 | 875.15 | 1.395 | 0.591
x2 = 0.7019 | 875.34 | 1.3936 | 0.603
x2 = 0.75 | 875.48 | 1.3931 | 0.61
x2 = 0.7998 | 875.62 | 1.3926 | 0.616
x2 = 0.9 | 875.94 | 1.3921 | 0.631
